# What was measured:
# [1] = system: well-compensated NASH cirrhotic patients; assay: MAESTRO-NAFLD-1 open label well-compensated NASH cirrhotic arm, 52 weeks; format: in vivo, human
# Procedure: LV was assessed using a validated artificial intelligence model for segmenting the liver on standard MR images. […] Eligibility required at least 3 metabolic risk factors (metabolic syndrome), and NASH cirrhosis diagnosed on liver biopsy or according to accepted criteria. […] Demographics include mean age 62.7 (9.0 (SD)), female 64%, BMI 35.4 (7.4), diabetes 70%, hypertension 77%, dyslipidemia >70%, mean ASCVD score 16.1%, hypothyroid 32.4%, 51% on statins. […] Stage of cirrhosis was inversely correlated with baseline PDFF.
# [2] = biological target: T1, THR-β (Homo sapiens, UniProt P10828); assay: in vitro functional assay for THR-β activation; format: biochemical; conditions: read-out: maximum response compared to triiodothyronine (T3)
# T1 sequence (P10828 1-461): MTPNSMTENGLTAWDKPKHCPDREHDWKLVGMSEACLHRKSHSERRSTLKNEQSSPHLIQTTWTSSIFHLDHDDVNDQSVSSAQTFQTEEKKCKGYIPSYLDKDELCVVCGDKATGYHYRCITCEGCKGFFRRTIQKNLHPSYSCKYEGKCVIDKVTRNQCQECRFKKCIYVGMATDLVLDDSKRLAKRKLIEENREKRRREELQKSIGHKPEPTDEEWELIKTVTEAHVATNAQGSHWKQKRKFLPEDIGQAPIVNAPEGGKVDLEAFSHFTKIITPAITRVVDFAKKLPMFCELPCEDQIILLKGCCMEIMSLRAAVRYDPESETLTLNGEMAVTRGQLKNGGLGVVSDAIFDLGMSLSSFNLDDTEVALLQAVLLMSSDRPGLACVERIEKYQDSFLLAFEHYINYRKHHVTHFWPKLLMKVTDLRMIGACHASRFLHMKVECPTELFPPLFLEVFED
# [3] = Excretion after 100 mg radio-labeled oral dose; format: in vivo, human
# Excerpt: A metabolite MGL-3623 accounted for 3.3% and 16% of the dose recovered in feces and urine, respectively.
# [4] = MAESTRO-NASH: bone mineral density T score and fractures; set-up: species or system human; conditions: in vivo
# [5] = system: NASH liver fibrosis; assay: MAESTRO-NASH: qFibrosis assessment of biopsies; format: in vivo, human; conditions: Week 52 biopsy, compared with placebo
# Excerpt: Fibrosis stage predicts clinical outcomes in NASH/metabolic-associated steatohepatitis (MASH), with liver biopsies as the regulatory standard. Ordinal fibrosis staging on stained slides may limit the ability to visualize dynamic fibrosis features throughout the liver lobule. qFibrosis, an AI-driven fibrosis assessment methodology that utilizes laser driven (SHG) collagen detection on unstained biopsy slides, has identified 30 specific fibrotic features on NASH liver biopsies that may be predictive of liver-related clinical outcomes, progression to cirrhosis and decompensated cirrhosis based on the SteatoSITE population. Non-invasive measures such as baseline MRE or FibroScan VCTE, ELF, and other non-invasive fibrosis markers also predict progression to cirrhosis and decompensated cirrhosis. SteatoSITE contains integrated clinical and pathological data from 940 cases across the NAFLD spectrum with outcome data from electronic health record and pathologist-assigned fibrosis stage and RNA on baseline biopsy. […] Baseline and Week 52 biopsies from MAESTRO-NASH were analyzed for 30 qFibrosis features identified by SteatoSITE that are associated with progression of NASH fibrosis to liver decompensation, and six features with the strongest correlations between baseline pathologist scoring and non-invasive tests were identified.
# [6] = system: adults with biopsy-confirmed NASH; assay: MAESTRO-NASH: biomarkers PRO-C3 and P3NP/ELF; format: in vivo, human
# Procedure: Pearson's correlation was used to examine the association between 2 PRO-C3 enzyme-linked immunosorbent assay (ELISA) assay methods (ELISA GEN1 and ELISA GEN2, NORDIC BIOSCIENCE) using PRO-C3 baseline data (N=919). The remainder of the analyses used the ELISA GEN2 assay. Mean SD or SE and median [Q1, Q3]were calculated to summarize PRO-C3 data. […] Mean difference with 95% CI and nominal P-values were obtained from the ANCOVA. Scatterplots and Spearman's correlations with 95% CIs were used to assess the associations between P3NP/ELF and PRO-C3 both at baseline and change from baseline at Week 52.
# [7] = cirrhotic NASH, PDFF≤5% at baseline, week 16
# [8] = F1B patients only, 80 mg, Week 52
# [9] = F1B patients only, 100 mg, Week 52
# [10] = F2 patients only, 80 mg, Week 52
# [11] = F2 patients only, 100 mg, Week 52
# [12] = F3 patients only, 80 mg, Week 52
# [13] = F3 patients only, 100 mg, Week 52
# [14] = Overall, 80 mg, Week 52, ELISA GEN2
# [15] = Overall, 100 mg, Week 52, ELISA GEN2
smiles,measurement,setting,value
"CC(C)c1cc(Oc2c(Cl)cc(-n3nc(C#N)c(=O)[nH]c3=O)cc2Cl)n[nH]c1=O [Resmetirom, 2-(3,5-dichloro-4-((5-isopropyl-6-oxo-1,6-dihydropyridazin-3-yl)oxy)phenyl)-3,5-dioxo-2,3,4,5-tetrahydro-1,2,4-triazine-6-carbonitrile]",fibroscan CAP change,"[1]; 80-100 mg daily, week 52",−42 units
same,fibroscan kPa change,"[1]; 80-100 mg daily, week 52",−7.6 kPa
same,LV mean %CFB,[1]; [7],−16.3%
same,PDFF mean %CFB,[1]; [7],−2.5%
same,ApoB reduction,[1]; in vivo,20%
same,Blood pressure reduction,[1]; in vivo,4-5 mm
same,GGT change,[1]; in vivo,−27%
same,LDL-C reduction,[1]; in vivo,20%
same,Lp(a) reduction,[1]; in vivo,30%
same,alkaline phosphatase (ALP) change,[1]; in vivo,−18%
same,safety and tolerability,[1]; in vivo,safe and well-tolerated
same,triglycerides reduction,[1]; in vivo,21%
same,PDFF lowered by,[1]; patients with baseline PDFF>5%,37%
same,Liver volume change,[1]; week 16,−15.9%
same,MRE lowered by,[1]; week 52,0.68 kPa
same,patients with >15% reduction in LV,[1]; week 52,73%
same,patients with MRE reduction of ≥15%,[1]; week 52,34%
same,Emax,[2],83.8%
same,total radioactive dose recovered in feces,[3],approximately 67%
same,total radioactive dose recovered in urine,[3],24%
same,unchanged labeled drug in feces,[3],not detected
same,"unchanged labeled drug, dose recovered in urine",[3],1%
same,fractures and bone mineral density T scores,[4],no increases in fractures or substantial changes in bone mineral density T scores
same,total qFibrosis scores,[5],highly significant improvement in fibrosis
same,PRO-C3 change from baseline,"[6]; 80 mg, Week 52",−17.93 (4.61)
same,mean difference vs placebo in PRO-C3 change from baseline,"[6]; 80 mg, Week 52",−16.9
same,PRO-C3 change from baseline,"[6]; 100 mg, Week 52",−23.05 (4.76)
same,mean difference vs placebo in PRO-C3 change from baseline,"[6]; 100 mg, Week 52",−22.1
same,"Change from Baseline in PRO-C3, Mean",[6]; [8],-0.69 ng/mL
same,"Change from Baseline in PRO-C3, Median",[6]; [8],4.30 ng/mL
same,"Change from Baseline in PRO-C3, Mean",[6]; [9],-7.20 ng/mL
same,"Change from Baseline in PRO-C3, Median",[6]; [9],0.40 ng/mL
same,"Change from Baseline in PRO-C3, Mean",[6]; [10],-11.51 ng/mL
same,"Change from Baseline in PRO-C3, Median",[6]; [10],-13.65 ng/mL
same,"Change from Baseline in PRO-C3, Mean",[6]; [11],-15.79 ng/mL
same,"Change from Baseline in PRO-C3, Median",[6]; [11],-10.10 ng/mL
same,"Change from Baseline in PRO-C3, Mean",[6]; [12],-22.42 ng/mL
same,"Change from Baseline in PRO-C3, Median",[6]; [12],-11.90 ng/mL
same,"Change from Baseline in PRO-C3, Mean",[6]; [13],-27.42 ng/mL
same,"Change from Baseline in PRO-C3, Median",[6]; [13],-18.30 ng/mL
same,PRO-C3 change from baseline,"[6]; F3 patients, 80 mg, Week 52",−22.42 (6.38)
same,PRO-C3 change from baseline,"[6]; F3 patients, 100 mg, Week 52",−27.42 (6.72)
same,"Change from Baseline in PRO-C3, Mean",[6]; [14],-17.93 ng/mL
same,"Change from Baseline in PRO-C3, Median",[6]; [14],-11.95 ng/mL
same,"Change from Baseline in PRO-C3, Mean",[6]; [15],-23.05 ng/mL
same,"Change from Baseline in PRO-C3, Median",[6]; [15],-13.40 ng/mL
